Experimental data from patent US20250145665A1, “MACROCYCLIC PEPTIDES USEFUL AS MODULATORS OF TNF ALPHA” (Bristol-Myers Squibb Company, priority 2023, published 2025).
Each block holds one molecule with its values, some of them ahead of it. Positions of bridges follow the written chain, without caps; N, C: chain ends. Non-standard residues stand in square brackets, D forms with d. Residues, ends and D or L forms follow the SMILES beside them. Bip(4'-NHAc) = CC(=O)Nc1ccc(-c2ccc(C[C@H](N)C(=O)O)cc2)cc1; Ala(morpholin-4-yl) = N[C@@H](CN1CCOCC1)C(=O)O; Phe(4-CH2NH2) = NCc1ccc(C[C@H](N)C(=O)O)cc1; Bip = N[C@@H](Cc1ccc(-c2ccccc2)cc1)C(=O)O; Pro(cis-4-F) = O=C(O)[C@@H]1C[C@H](F)CN1; Phe(4-F) = N[C@@H](Cc1ccc(F)cc1)C(=O)O; Phe(2-F) = N[C@@H](Cc1ccccc1F)C(=O)O; Val(3-OH) = CC(C)(O)[C@H](N)C(=O)O; Hyp = O=C(O)[C@@H]1C[C@@H](O)CN1; 3Pal = N[C@@H](Cc1cccnc1)C(=O)O; Tic = O=C(O)[C@@H]1Cc2ccccc2CN1; Pip = O=C(O)[C@@H]1CCCCN1; Aze = O=C(O)[C@@H]1CCN1; Sar = CNCC(=O)O

Target: TNFα (Homo sapiens, UniProt P01375)
Test: TNF-Induced HEK-Blue Assay
Assay type: cell-based
Settings: HEK-Blue-CD40L cells, NF-kB-driven secreted alkaline phosphatase reporter; TNFα 0.5 ng/ml; 18 h; read-out: TNF induced HEK-Blue assay IC50 value
Description: TNFα (final concentration 0.5 ng/ml) or CD40L (final concentration 30 ng/ml) in assay buffer [DMEM, 4.5 g/l glucose (Gibco, Cat. 21063-029), 10% FBS (Sigma, F4135), 1% Penicillin-Streptomycin (Gibco, Cat. 15140-122), 1% Anti-Anti (Gibco, Cat. 15240-112) and 2 mM L-glutamine (Gibco, Cat. 25030-081)] was then added to the assay plate. After a 30 minute pre-incubation at 37° C. and 5% CO2, HEK-Blue™-CD40L cells (INVIVOGEN, Cat. Code hkb-cd40) containing a NF-kB-driven secreted alkaline phosphatase reporter gene were seeded into the assay plate at a density of 20,000 cells per well. This plate was then incubated for 18 h at 37° C. and 5% CO2. Secreted alkaline phosphatase expression was measured using QUANTI-Blue™ (INVIVOGEN, Cat. Code rep-qb1) according to manufacturer's specifications and the assay plate was read on a PerkinElmer Envision at 620 nm.
IC50 values were determined after correcting for background [(sample read-mean of low control)/(mean of high control-mean of low control)] where by the low control is DMSO without stimulation and high control is DMSO with stimulation.

Sequence of TNFα (P01375 77-233 limits assumed): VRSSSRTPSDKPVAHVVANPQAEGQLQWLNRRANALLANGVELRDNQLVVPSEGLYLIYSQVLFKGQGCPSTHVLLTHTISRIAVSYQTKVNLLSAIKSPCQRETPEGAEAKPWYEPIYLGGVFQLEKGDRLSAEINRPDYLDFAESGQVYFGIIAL

SMILES: CC(C)C[C@@H]1NC(=O)[C@H](CCCNC(=N)N)NC(=O)[C@H](C(C)C)NC(=O)[C@@H]2C[C@@H](O)CN2C(=O)[C@H](C(C)C)NC(=O)[C@H](CCCNC(=N)N)NC(=O)[C@H](CC(=O)O)NC(=O)[C@@H]2CCCN2C(=O)CN(C)C(=O)[C@H](Cc2ccc(-c3ccccc3)cc2)NC(=O)[C@H](Cc2ccc(-c3ccccc3)cc2)NC(=O)[C@H](Cc2ccccc2)NC(=O)CSC[C@@H](C(=O)NCC(N)=O)NC1=O [Example 39] ({CH2CO}-F[Bip][Bip][Sar]PDRV[Hyp]VRLCG-NH2; thioether N-13)
IC50: 200 to 2000 nM

SMILES: CC(C)C[C@@H]1NC(=O)[C@H](CCCNC(=N)N)NC(=O)[C@H](C(C)C)NC(=O)[C@@H]2Cc3ccccc3CN2C(=O)[C@H](C(C)C)NC(=O)[C@H](CCCNC(=N)N)NC(=O)[C@H](CC(=O)O)NC(=O)[C@@H]2CCCN2C(=O)CN(C)C(=O)[C@H](Cc2ccc(-c3ccccc3)cc2)NC(=O)[C@H](Cc2ccc(-c3ccccc3)cc2)NC(=O)[C@H](Cc2ccccc2)NC(=O)CSC[C@@H](C(=O)NCC(N)=O)NC1=O [Example 40] ({CH2CO}-F[Bip][Bip][Sar]PDRV[Tic]VRLCG-NH2; thioether N-13)
IC50: 50 to 200 nM

SMILES: CC(C)C[C@@H]1NC(=O)[C@H](CCCNC(=N)N)NC(=O)[C@H](C(C)C)NC(=O)[C@@H]2C[C@H](F)CN2C(=O)[C@H](C(C)C)NC(=O)[C@H](CCCNC(=N)N)NC(=O)[C@H](CC(=O)O)NC(=O)[C@@H]2CCCN2C(=O)CN(C)C(=O)[C@H](Cc2ccc(-c3ccccc3)cc2)NC(=O)[C@H](Cc2ccc(-c3ccccc3)cc2)NC(=O)[C@H](Cc2ccccc2)NC(=O)CSC[C@@H](C(=O)NCC(N)=O)NC1=O [Example 43] ({CH2CO}-F[Bip][Bip][Sar]PDRV[Pro(cis-4-F)]VRLCG-NH2; thioether N-13)
IC50: 200 to 2000 nM

SMILES: CC(C)C[C@@H]1NC(=O)[C@H](CCCNC(=N)N)NC(=O)[C@H](C(C)C)NC(=O)[C@@H]2CCCN2C(=O)[C@H](C(C)C)NC(=O)[C@H](CCCNC(=N)N)NC(=O)[C@H](CC(=O)O)NC(=O)[C@@H]2C[C@@H](O)CN2C(=O)CN(C)C(=O)[C@H](Cc2ccc(-c3ccccc3)cc2)NC(=O)[C@H](Cc2ccc(-c3ccccc3)cc2)NC(=O)[C@H](Cc2ccccc2)NC(=O)CSC[C@@H](C(=O)NCC(N)=O)NC1=O [Example 44] ({CH2CO}-F[Bip][Bip][Sar][Hyp]DRVPVRLCG-NH2; thioether N-13)
IC50: 200 to 2000 nM

SMILES: CC(C)C[C@@H]1NC(=O)[C@H](CCCNC(=N)N)NC(=O)[C@H](C(C)C)NC(=O)[C@@H]2CCCN2C(=O)[C@H](C(C)C)NC(=O)[C@H](CCCNC(=N)N)NC(=O)[C@H](CC(=O)O)NC(=O)[C@@H]2Cc3ccccc3CN2C(=O)CN(C)C(=O)[C@H](Cc2ccc(-c3ccccc3)cc2)NC(=O)[C@H](Cc2ccc(-c3ccccc3)cc2)NC(=O)[C@H](Cc2ccccc2)NC(=O)CSC[C@@H](C(=O)NCC(N)=O)NC1=O [Example 45] ({CH2CO}-F[Bip][Bip][Sar][Tic]DRVPVRLCG-NH2; thioether N-13)
IC50: 200 to 2000 nM

SMILES: CC(C)C[C@@H]1NC(=O)[C@H](CCCNC(=N)N)NC(=O)[C@H](C(C)C)NC(=O)[C@@H]2CCCN2C(=O)[C@H](C(C)C)NC(=O)[C@H](CCCNC(=N)N)NC(=O)[C@H](CC(=O)O)NC(=O)[C@H](Cc2ccc(O)cc2)NC(=O)CN(C)C(=O)[C@H](Cc2ccc(-c3ccccc3)cc2)NC(=O)[C@H](Cc2ccc(-c3ccccc3)cc2)NC(=O)[C@H](CN2CCOCC2)NC(=O)CSC[C@@H](C(=O)NCC(N)=O)NC1=O [Example 47] ({CH2CO}-[Ala(morpholin-4-yl)][Bip][Bip][Sar]YDRVPVRLCG-NH2; thioether N-13)
IC50: 50 to 200 nM

SMILES: CC(C)C[C@@H]1NC(=O)[C@H](Cc2ccc(O)cc2)NC(=O)[C@H](C(C)C)NC(=O)[C@@H]2CCCN2C(=O)[C@H](C(C)C)NC(=O)[C@H](CCCNC(=N)N)NC(=O)[C@H](CC(=O)O)NC(=O)[C@@H]2CCCN2C(=O)CN(C)C(=O)[C@H](Cc2ccc(-c3ccccc3)cc2)NC(=O)[C@H](Cc2ccc(-c3ccccc3)cc2)NC(=O)[C@H](CN2CCOCC2)NC(=O)CSC[C@@H](C(=O)NCC(N)=O)NC1=O [Example 49] ({CH2CO}-[Ala(morpholin-4-yl)][Bip][Bip][Sar]PDRVPVYLCG-NH2; thioether N-13)
IC50: 50 to 200 nM

SMILES: CC(C)C[C@@H]1NC(=O)[C@H](CCCNC(=N)N)NC(=O)[C@H](C(C)C)NC(=O)[C@@H]2CCCN2C(=O)[C@H](Cc2ccc(CN)cc2)NC(=O)[C@H](CCCNC(=N)N)NC(=O)[C@H](CC(=O)O)NC(=O)[C@@H]2CCCN2C(=O)CN(C)C(=O)[C@H](Cc2ccc(-c3ccccc3)cc2)NC(=O)[C@H](Cc2ccc(-c3ccccc3)cc2)NC(=O)[C@H](CN2CCOCC2)NC(=O)CSC[C@@H](C(=O)NCC(N)=O)NC1=O [Example 51] ({CH2CO}-[Ala(morpholin-4-yl)][Bip][Bip][Sar]PDR[Phe(4-CH2NH2)]PVRLCG-NH2; thioether N-13)
IC50: 200 to 2000 nM

SMILES: CC(C)C[C@@H]1NC(=O)[C@H](CCCNC(=N)N)NC(=O)[C@H](C(C)C)NC(=O)[C@@H]2CCCN2C(=O)[C@H](Cc2ccc(F)cc2)NC(=O)[C@H](CCCNC(=N)N)NC(=O)[C@H](CC(=O)O)NC(=O)[C@@H]2CCCN2C(=O)CN(C)C(=O)[C@H](Cc2ccc(-c3ccccc3)cc2)NC(=O)[C@H](Cc2ccc(-c3ccccc3)cc2)NC(=O)[C@H](CN2CCOCC2)NC(=O)CSC[C@@H](C(=O)NCC(N)=O)NC1=O [Example 52] ({CH2CO}-[Ala(morpholin-4-yl)][Bip][Bip][Sar]PDR[Phe(4-F)]PVRLCG-NH2; thioether N-13)
IC50: 200 to 2000 nM

The next lines start with the values.

IC50: 200 to 2000 nM
SMILES: CC(=O)Nc1ccc(-c2ccc(C[C@@H]3NC(=O)[C@H](Cc4ccccc4)NC(=O)CSC[C@@H](C(=O)NCC(N)=O)NC(=O)[C@H](CC(C)C)NC(=O)[C@H](CCCNC(=N)N)NC(=O)[C@H](C(C)C)NC(=O)[C@@H]4CCCN4C(=O)[C@H](C(C)C)NC(=O)[C@H](CCCNC(=N)N)NC(=O)[C@H](CC(=O)O)NC(=O)[C@@H]4CCCN4C(=O)CN(C)C(=O)[C@H](Cc4ccc(-c5ccccc5)cc4)NC3=O)cc2)cc1 [Example 38] ({CH2CO}-F[Bip(4'-NHAc)][Bip][Sar]PDRVPVRLCG-NH2; thioether N-13)

IC50: 200 to 2000 nM
SMILES: CC(C)C[C@@H]1NC(=O)[C@H](CCCNC(=N)N)NC(=O)[C@H](C(C)C)NC(=O)[C@@H]2CCCCN2C(=O)[C@H](C(C)C)NC(=O)[C@H](CCCNC(=N)N)NC(=O)[C@H](CC(=O)O)NC(=O)[C@@H]2CCCN2C(=O)CN(C)C(=O)[C@H](Cc2ccc(-c3ccccc3)cc2)NC(=O)[C@H](Cc2ccc(-c3ccccc3)cc2)NC(=O)[C@H](Cc2ccccc2)NC(=O)CSC[C@@H](C(=O)NCC(N)=O)NC1=O [Example 41] ({CH2CO}-F[Bip][Bip][Sar]PDRV[Pip]VRLCG-NH2; thioether N-13)

IC50: 200 to 2000 nM
SMILES: CC(C)C[C@@H]1NC(=O)[C@H](CCCNC(=N)N)NC(=O)[C@H](C(C)C)NC(=O)[C@@H]2CCN2C(=O)[C@H](C(C)C)NC(=O)[C@H](CCCNC(=N)N)NC(=O)[C@H](CC(=O)O)NC(=O)[C@@H]2CCCN2C(=O)CN(C)C(=O)[C@H](Cc2ccc(-c3ccccc3)cc2)NC(=O)[C@H](Cc2ccc(-c3ccccc3)cc2)NC(=O)[C@H](Cc2ccccc2)NC(=O)CSC[C@@H](C(=O)NCC(N)=O)NC1=O [Example 42] ({CH2CO}-F[Bip][Bip][Sar]PDRV[Aze]VRLCG-NH2; thioether N-13)

IC50: 200 to 2000 nM
SMILES: CC(C)C[C@@H]1NC(=O)[C@H](CCCNC(=N)N)NC(=O)[C@H](C(C)C)NC(=O)[C@@H]2CCCN2C(=O)[C@H](C(C)C)NC(=O)[C@H](CCCNC(=N)N)NC(=O)[C@H](CC(=O)O)NC(=O)[C@@H]2CCN2C(=O)CN(C)C(=O)[C@H](Cc2ccc(-c3ccccc3)cc2)NC(=O)[C@H](Cc2ccc(-c3ccccc3)cc2)NC(=O)[C@H](Cc2ccccc2)NC(=O)CSC[C@@H](C(=O)NCC(N)=O)NC1=O [Example 46] ({CH2CO}-F[Bip][Bip][Sar][Aze]DRVPVRLCG-NH2; thioether N-13)

IC50: 200 to 2000 nM
SMILES: CC(C)C[C@@H]1NC(=O)[C@H](Cc2ccc(O)cc2)NC(=O)[C@H](C(C)C)NC(=O)[C@@H]2CCCN2C(=O)[C@H](C(C)C)NC(=O)[C@H](CCCNC(=N)N)NC(=O)[C@H](CC(=O)O)NC(=O)[C@H](Cc2ccc(O)cc2)NC(=O)CN(C)C(=O)[C@H](Cc2ccc(-c3ccccc3)cc2)NC(=O)[C@H](Cc2ccc(-c3ccccc3)cc2)NC(=O)[C@H](CN2CCOCC2)NC(=O)CSC[C@@H](C(=O)NCC(N)=O)NC1=O [Example 48] ({CH2CO}-[Ala(morpholin-4-yl)][Bip][Bip][Sar]YDRVPVYLCG-NH2; thioether N-13)

IC50: 50 to 200 nM
SMILES: CC(C)C[C@@H]1NC(=O)[C@H](Cc2ccc(O)cc2)NC(=O)[C@H](C(C)C)NC(=O)[C@@H]2CCCN2C(=O)[C@H](C(C)C)NC(=O)[C@H](CCCNC(=N)N)NC(=O)[C@H](CC(=O)O)NC(=O)[C@H](Cc2ccc(O)cc2)NC(=O)CN(C)C(=O)[C@H](Cc2ccc(-c3ccccc3)cc2)NC(=O)[C@H](Cc2ccc(-c3ccccc3)cc2)NC(=O)[C@H](C(C)(C)O)NC(=O)CSC[C@@H](C(=O)NCC(N)=O)NC1=O [Example 50] ({CH2CO}-[Val(3-OH)][Bip][Bip][Sar]YDRVPVYLCG-NH2; thioether N-13)

IC50: 200 to 2000 nM
SMILES: CC(C)C[C@@H]1NC(=O)[C@H](CCCNC(=N)N)NC(=O)[C@H](C(C)C)NC(=O)[C@@H]2CCCN2C(=O)[C@H](Cc2ccccc2F)NC(=O)[C@H](CCCNC(=N)N)NC(=O)[C@H](CC(=O)O)NC(=O)[C@@H]2CCCN2C(=O)CN(C)C(=O)[C@H](Cc2ccc(-c3ccccc3)cc2)NC(=O)[C@H](Cc2ccc(-c3ccccc3)cc2)NC(=O)[C@H](CN2CCOCC2)NC(=O)CSC[C@@H](C(=O)NCC(N)=O)NC1=O [Example 53] ({CH2CO}-[Ala(morpholin-4-yl)][Bip][Bip][Sar]PDR[Phe(2-F)]PVRLCG-NH2; thioether N-13)

IC50: 50 to 200 nM
SMILES: CC(C)C[C@@H]1NC(=O)[C@H](CCCNC(=N)N)NC(=O)[C@H](C(C)C)NC(=O)[C@@H]2CCCN2C(=O)[C@H](Cc2cccnc2)NC(=O)[C@H](CCCNC(=N)N)NC(=O)[C@H](CC(=O)O)NC(=O)[C@@H]2CCCN2C(=O)CN(C)C(=O)[C@H](Cc2ccc(-c3ccccc3)cc2)NC(=O)[C@H](Cc2ccc(-c3ccccc3)cc2)NC(=O)[C@H](CN2CCOCC2)NC(=O)CSC[C@@H](C(=O)NCC(N)=O)NC1=O [Example 54] ({CH2CO}-[Ala(morpholin-4-yl)][Bip][Bip][Sar]PDR[3Pal]PVRLCG-NH2; thioether N-13)
